For assay [1], the target named is T1, CaM (Bos taurus, UniProt P62157).
T1 construct: made in house; host or cells: E. coli BL21 (DE3)
In words: Pull-down assay with immobilized protein and LSM libraries. Conditions: H14 library; 1:2 stoichiometry assumed; read-out: Surface mapping KD (apparent). Type of assay: binding, bovine. A digest of the protocol: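 His-tagged protein immobilized on Co-NTA resin, equilibrated 30 min at room temperature with LSM sublibraries (64 members, […]), equimolar protein to total probe. CaM buffer: 20 mM HEPES pH 7.4, 150 mM NaCl, 5 mM CaCl2. Bound fractions from HPLC-MS loss of unbound probe versus protein-free resin control; Kd derived.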

Assay [2] addresses T2, Gal-1 (Homo sapiens, UniProt P09382).
T2 construct: made in house; host or cells: E. coli BL21(DE3)
Described as above. Type of assay: binding. As to conditions: H14 library; 1:1 binding assumed; read-out: Surface mapping KD (apparent). A digest of the protocol: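 His-tagged protein immobilized on Co-NTA resin (64 µM) in 20 mM HEPES pH 7.4, 150 mM NaCl, equilibrated 30 min at room temperature with foldamer LSM sublibraries at equimolar total concentration. Unbound fractions quantified by HPLC-MS versus protein-free resin control; apparent KD assumes 1:1 binding.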

Assay [3] deals with T1, CaM. As to the kind of experiment: Competition pull-down with native ligand TRPV1-Ct15. It is filed as binding, bovine. As to conditions: H14 library; competitor peptide 200 µM; read-out: Surface mapping KD (apparent), competition.
The target of assay [4] is T2, Gal-1. As to the kind of experiment: Competition pull-down with lactose. Conditions: H14 library; lactose 10 mM; read-out: Surface mapping KD (apparent), competition. It is filed as binding. The protocol: Interactions between the H14 helical LSMs and the targets were abundant, but safe recognition of the native PPI interfaces on the targets is a criterion of druggability. To gain insight into the ability of the LSMs to detect orthosteric spots, we carried out pull-down assays in the presence of the native ligands (Table 2) of the targets (Fig. 5). For highlighting the effect of the competitor on the binding fingerprints, KD ratios and the LSM replacement percentages were calculated and are represented as heat maps (see ESI, Fig. S7 ^†). […] This could be explained by the glycan selective native recognition domain of the protein. We note that the replacement pattern for a single probe can, in theory, be complex. […] Moreover, a single probe can bind to both orthosteric and non-orthosteric spots, which limits overall displacement levels. To avoid overlooking interesting orthosteric weak binders, direct replacement levels were assessed (see ESI, Fig. S7 ^†).
Pull-down assay and data analysis
Pull-down assay. LSM sublibraries were screened separately as previously described.(2) Experiments were performed in the following buffers: (i) 20 mM pH 7.4 HEPES, 150 mM NaCl, 5 mM CaCl2 for CaM; (ii) 50 mM pH 7.4 HEPES, 150 mM NaCl, 1 mM TCEP, 1 mM CaCl2 for S100 proteins; (iii) 20 mM pH 7.4 HEPES, 150 mM NaCl, 1 mM TCEP for Gal-1 and (iv) 20 mM pH 7.4 HEPES, 150 mM NaCl for RecQ-WH. Assays were performed in paper filter spin cups (Thermo Scientific) with sample volumes of 100 µl. Hexahistidine-tagged proteins were immobilized on previously washed Co-NTA resin (TALON, Takara Bio USA, Inc., Mountain View, CA) in 64 µM final concentration. LSM sublibrary was added, in which each of the 64 library members were used at a concentration of 1 µM. Samples were incubated at room temperature for 30 min with shaking at 100 rpm. Then, samples were centrifuged at 1000 rpm for 2 min and washed with 100 µl pull-down buffer to remove unbound compounds.
The control experiments were performed using the same compounds and the resin but without the immobilized protein. In case of competitive assays, competitor peptides were added to LSM sublibrary samples in 200 µM final concentration. In the case of Gal-1, lactose (competitor) was used in a concentration of 10 mM. Experiments were performed at least twice. Mean […]
LC-MS methods and parameters. HPLC/ESI-MS analysis was used to characterize the samples from the pull-down assay. LC-MS analysis was performed with a Thermo Scientific Dionex UltiMate 3000 HPLC system interfaced to an LTQ ion trap mass spectrometer (Thermo Electron Corp., San Jose, CA, USA). Samples were injected onto an Aeris Widepore XB-C18 (250 x 4.6 mm) analytical HPLC column using gradient elution 5-80 % solution B during 25 minutes. For pull-down samples, eluent composition was 0.1% acetic acid in distilled water (Solution A) and 0.1% acetic acid in acetonitrile (solution B). Mass spectra were acquired in full scan mode from 200 to 2000 m/z range. For overlapping peaks, selective reaction monitoring (SRM) was […]
MS data analysis. Thermo Xcalibur 2.2 software was used for peak identification and integration. The majority of the foldameric fragments could be resolved independently via HPLC-MS/MS measurements based on molecular weight, MS fragmentation pattern and retention time. Peaks of some foldamers with β3-hIle or β3-hLeu in position R2 could not be resolved, these were integrated and averaged. In the processing method, each sample component was associated to a chromatographic peak based on previously identified mass (m/z) and retention time (ref (2) and Table S7-10). Using ICIS peak detection algorithm, the general detection and integration criteria were: smoothing points: 5, baseline window: 80, area noise factor: 5, peak noise factor: 10. Using these processing setups, all raw data files were reprocessed together and analyzed. Errors in peak identification during the automatic processing were corrected manually.
Calculation of the discussed parameters […]

The target in a further assay is T3, S100A4 (Homo sapiens, UniProt P26447).
T3 construct: made in house; host or cells: Escherichia coli BL21(DE3)
T3 sequence (P26447 whole entry): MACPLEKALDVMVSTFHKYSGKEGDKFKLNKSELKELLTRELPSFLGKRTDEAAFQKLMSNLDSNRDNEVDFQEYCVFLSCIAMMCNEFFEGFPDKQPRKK
As to the kind of experiment: Pull-down assay with immobilized protein and LSM libraries. It is filed as binding. As to conditions: H14 library; 1:1 binding assumed; read-out: Surface mapping KD (apparent). The gist of the method:
(§1)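 Buffers were HEPES pH 7.4 with 150 mM NaCl, plus 1 mM TCEP and 1 mM CaCl2 (50 mM HEPES) for S100A4 and S100B, 1 mM TCEP for Gal-1, and no additive for RecQ-WH. Immobilized protein at 64 µM was equilibrated 30 min with the LSM sublibrary, and unbound probes were measured by LC-MS.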

Another assay has as its target T4, S100B (Homo sapiens, UniProt P04271).
T4 construct: made in house; host or cells: Escherichia coli BL21(DE3)
T4 sequence (P04271 1-92): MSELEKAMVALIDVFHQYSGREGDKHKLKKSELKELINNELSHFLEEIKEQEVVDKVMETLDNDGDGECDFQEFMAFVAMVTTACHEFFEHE
The assay is described as above. It is filed as binding. Conditions: H14 library; 1:1 binding assumed; read-out: Surface mapping KD (apparent). The gist of the method:
as §1

T2 sequence (P09382 whole entry): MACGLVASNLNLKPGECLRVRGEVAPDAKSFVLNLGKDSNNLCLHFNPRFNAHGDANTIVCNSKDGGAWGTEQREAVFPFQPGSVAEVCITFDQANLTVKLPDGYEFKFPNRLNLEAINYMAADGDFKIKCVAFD

Regarding `C[C@@H](CC(=O)N[C@H]1CCCC[C@@H]1C(N)=O)NC(=O)[C@H]1CCCC[C@@H]1NC(=O)[C@H]1CCCC[C@@H]1NC(=O)C[C@H](CO)NC(=O)[C@H]1CCCC[C@@H]1N` [H14 SA], the Kd at CaM [1] is 384 µM; at Gal-1 [2] it was 389 µM; at CaM [3] it was 362 µM; at Gal-1 [4], 432 µM.

As to `NC(=O)[C@H]1CCCC[C@@H]1NC(=O)C[C@H](CCC(=O)O)NC(=O)[C@H]1CCCC[C@@H]1NC(=O)[C@H]1CCCC[C@@H]1NC(=O)C[C@H](CO)NC(=O)[C@H]1CCCC[C@@H]1N` [H14 SE], the Kd amounted to 236 µM on CaM [1], 326 µM on Gal-1 [2], 232 µM on CaM [3] and 415 µM at Gal-1 [4].

Take `CC(C)[C@@H](CC(=O)N[C@H]1CCCC[C@@H]1C(N)=O)NC(=O)[C@H]1CCCC[C@@H]1NC(=O)[C@H]1CCCC[C@@H]1NC(=O)C[C@H](CCC(N)=O)NC(=O)[C@H]1CCCC[C@@H]1N` [H14 QV]: the Kd at CaM [1] was 94 µM; on Gal-1 [2], 349 µM; on CaM [3], 229 µM; on Gal-1 [4], 372 µM.

Turning to `CC(C)[C@@H](CC(=O)N[C@H]1CCCC[C@@H]1C(N)=O)NC(=O)[C@H]1CCCC[C@@H]1NC(=O)[C@H]1CCCC[C@@H]1NC(=O)C[C@H](CCC(=O)O)NC(=O)[C@H]1CCCC[C@@H]1N` [H14 EV], the Kd at CaM [3] came out at 492 µM; on Gal-1 [4] it was 300 µM.

With `C[C@@H](O)[C@@H](CC(=O)N[C@H]1CCCC[C@@H]1C(N)=O)NC(=O)[C@H]1CCCC[C@@H]1NC(=O)[C@H]1CCCC[C@@H]1NC(=O)C[C@@H](NC(=O)[C@H]1CCCC[C@@H]1N)[C@@H](C)O` [H14 TT], the Kd at CaM [1] is 253 µM; on Gal-1 [2], 366 µM; on CaM [3] it was 416 µM; at Gal-1 [4], 431 µM.

For `C[C@@H](O)[C@@H](CC(=O)N[C@H]1CCCC[C@@H]1C(=O)N[C@H]1CCCC[C@@H]1C(=O)N[C@@H](CC(=O)O)CC(=O)N[C@H]1CCCC[C@@H]1C(N)=O)NC(=O)[C@H]1CCCC[C@@H]1N` [H14 TD], the Kd at CaM [1] amounted to 314 µM; on Gal-1 [2], 326 µM; at CaM [3] it was 232 µM; at Gal-1 [4] it was 415 µM.

Take `C[C@@H](O)[C@@H](CC(=O)N[C@H]1CCCC[C@@H]1C(=O)N[C@H]1CCCC[C@@H]1C(=O)N[C@@H](CCC(=O)O)CC(=O)N[C@H]1CCCC[C@@H]1C(N)=O)NC(=O)[C@H]1CCCC[C@@H]1N` [H14 TE]: the Kd on CaM [1] is 285 µM; at Gal-1 [2] it was 244 µM; at CaM [3], 281 µM; at Gal-1 [4], 366 µM.

`NC(=O)CC[C@@H](CC(=O)N[C@H]1CCCC[C@@H]1C(=O)N[C@H]1CCCC[C@@H]1C(=O)N[C@@H](CO)CC(=O)N[C@H]1CCCC[C@@H]1C(N)=O)NC(=O)[C@H]1CCCC[C@@H]1N` [H14 QS]: the Kd at CaM [1] was determined as 187 µM; at Gal-1 [2], 350 µM; on CaM [3], 336 µM; at Gal-1 [4] it was 500 µM.

For the molecule `NCCCC[C@@H](CC(=O)N[C@H]1CCCC[C@@H]1C(=O)N[C@H]1CCCC[C@@H]1C(=O)N[C@@H](CC(=O)O)CC(=O)N[C@H]1CCCC[C@@H]1C(N)=O)NC(=O)[C@H]1CCCC[C@@H]1N` [H14 KD], the Kd on CaM [3] worked out at 365 µM; on Gal-1 [4] it was 290 µM.

Take `CC(C)[C@@H](CC(=O)N[C@H]1CCCC[C@@H]1C(N)=O)NC(=O)[C@H]1CCCC[C@@H]1NC(=O)[C@H]1CCCC[C@@H]1NC(=O)C[C@@H](NC(=O)[C@H]1CCCC[C@@H]1N)[C@@H](C)O` [H14 TV]: the Kd at CaM [1] was determined as 113 µM; on Gal-1 [2], 399 µM; at CaM [3] it was 376 µM; on Gal-1 [4] it was 424 µM.

Regarding `C[C@@H](O)[C@@H](CC(=O)N[C@H]1CCCC[C@@H]1C(=O)N[C@H]1CCCC[C@@H]1C(=O)N[C@@H](CO)CC(=O)N[C@H]1CCCC[C@@H]1C(N)=O)NC(=O)[C@H]1CCCC[C@@H]1N` [H14 TS], the Kd at CaM [1] was 71 µM; on Gal-1 [2], 408 µM; on CaM [3] it was 487 µM; on Gal-1 [4] it was 390 µM.

In the case of `NC(=O)C[C@@H](CC(=O)N[C@H]1CCCC[C@@H]1C(N)=O)NC(=O)[C@H]1CCCC[C@@H]1NC(=O)[C@H]1CCCC[C@@H]1NC(=O)C[C@H](CO)NC(=O)[C@H]1CCCC[C@@H]1N` [H14 SN], the Kd was 184 µM at CaM [1], 310 µM on Gal-1 [2], 279 µM at CaM [3] and 427 µM on Gal-1 [4].

For the molecule `NC(=O)C[C@@H](CC(=O)N[C@H]1CCCC[C@@H]1C(=O)N[C@H]1CCCC[C@@H]1C(=O)N[C@@H](CO)CC(=O)N[C@H]1CCCC[C@@H]1C(N)=O)NC(=O)[C@H]1CCCC[C@@H]1N` [H14 NS], the Kd was 184 µM at CaM [1], 310 µM at Gal-1 [2], 279 µM at CaM [3] and 427 µM at Gal-1 [4].

Regarding `NC(=O)CC[C@@H](CC(=O)N[C@H]1CCCC[C@@H]1C(N)=O)NC(=O)[C@H]1CCCC[C@@H]1NC(=O)[C@H]1CCCC[C@@H]1NC(=O)C[C@H](CCC(N)=O)NC(=O)[C@H]1CCCC[C@@H]1N` [H14 QQ], the Kd at CaM [1] was 186 µM; on Gal-1 [2], 273 µM; at CaM [3] it was 295 µM; on Gal-1 [4], 467 µM.

As for `CSCC[C@@H](CC(=O)N[C@H]1CCCC[C@@H]1C(N)=O)NC(=O)[C@H]1CCCC[C@@H]1NC(=O)[C@H]1CCCC[C@@H]1NC(=O)C[C@H](CC(N)=O)NC(=O)[C@H]1CCCC[C@@H]1N` [H14 NM], the Kd was 50 µM at CaM [1], 350 µM on Gal-1 [2], 452 µM at CaM [3] and 406 µM on Gal-1 [4].

`C[C@@H](O)[C@@H](CC(=O)N[C@H]1CCCC[C@@H]1C(N)=O)NC(=O)[C@H]1CCCC[C@@H]1NC(=O)[C@H]1CCCC[C@@H]1NC(=O)C[C@H](CC(N)=O)NC(=O)[C@H]1CCCC[C@@H]1N` [H14 NT]: the Kd at CaM [1] is 187 µM; at Gal-1 [2], 350 µM; on CaM [3], 336 µM; on Gal-1 [4] it was 500 µM.

In the case of `NC(=O)C[C@@H](CC(=O)N[C@H]1CCCC[C@@H]1C(N)=O)NC(=O)[C@H]1CCCC[C@@H]1NC(=O)[C@H]1CCCC[C@@H]1NC(=O)C[C@H](Cc1c[nH]c2ccccc12)NC(=O)[C@H]1CCCC[C@@H]1N` [H14 WN], the Kd turned out to be 14 µM at CaM [1], 224 µM on S100A4, 168 µM at S100B and 294 µM at CaM [3].

(Values after paper PMC8162404, “Proteomimetic surface fragments distinguish targets by function” (Chemical Science, 2020).)
